For assay [1], the target named is T1, KRAS G12D (Homo sapiens, UniProt P01116, G12D).
T1 construct: GST-tagged KRAS WT or mutant protein (amino acids 2-169)
Briefly: KRAS Nucleotide Exchange Assay (SOS1-mediated), G12D. In kind it is biochemical. The settings on record: HTRF, 20 nM KRAS, 12.5 nM SOS1, 60 minutes preincubation, approximately 25 minutes reaction. The text has this:
(§1) Test Example 1: KRAS Nucleotide Exchange Assay
(§2) Evaluation of the inhibitory effect of compounds on SOS1-mediated nucleotide exchange activity of KIRAS^WT, KRAS^G12D, KRAS^G12V, KRAS^G12C and KRAS^G13D mutants
(§3) The assay monitors SOS1 mediated exchange of KRAS bound unlabeled GDP to fluorescently labeled GTP. The detection is based on the transfer of energy between two fluorophores when they are in close proximity. Donor is the Tb cryptate labeled anti-GST antibody and acceptor is a DY-647P1 GTP.
(§4) • GST-tagged KRAS WT or mutant protein (amino acids 2-169), • SOS1 (amino acids 564-1049), • Labeled GTP (GTP-DY-647P1), • Assay Buffer (20 mM HEPES pH 7.4, 150 mM NaCl, 5 mM MgCl2, 1 mM DTT, 0.05% BSA, 0.0025% NP40)
(§5) • 1. KRAS protein was diluted with assay buffer to reach 1.5 times of the final concentration, then mixed with Tb cryptate anti-GST antibody and added at 10 μL to each assay well (all of the final concentration was 20 nM for KRAS^WT, KRAS^G12D, and KRAS^G12V) • 2. The compound was dissolved in DMSO and diluted to prepare 100 times of the final concentration. • 3. Compounds were dispensed into assay wells using an ECHO acoustic dispenser (Beckman), mixed gently with the KRAS/Ab mixture, and incubated for 60 minutes. • 4. SOS1 and labeled GTP were mixed, diluted to 3 times of the final concentration with assay buffer, and 5 μL of the solution was added to the assay well to initiate the reaction (final concentration of labeled GTP was […], final concentration of SOS1 was 7.5 nM in WT, 12.5 nM in G12D and 50 nM in G12V). Only assay buffer and labeled GTP were added to the blank well. • 5. The reaction was monitored at Ex/Em=(337/665; 337/620) using a Pherastar Plate Reader (BMG). • 6. HTRF signals were analyzed approximately 25 minutes after the start of the reaction (60 minutes reaction for G12V). • 7. Nucleotide exchange activity is expressed as a percentage difference compared to the DMSO reaction value, and the IC50 value was calculated based on the four-parameter logistic equation in GraphPad 4.0 software.
(In general: TR-FRET usually uses a lanthanide donor and a delayed reading to cut background.)

Assay [2] has as its system AsPC-1 cells. In words: Cell Proliferation Assay, AsPC-1 (CellTiter-Glo 2.0 viability). The settings on record: Homo sapiens, ASPC1, 72 h, AsPC-1 pancreatic cancer (KRAS G12D mutation). In kind it is cell-based. As to the method:
(§6) Test Example 3: Cell Proliferation Assay
(§7) Cell viability testing of test compounds in AsPC-1 pancreatic cancer (KRAS G12D mutation) or SW480 colon cancer (KRAS G12V mutation) cells for 72 hours
(§8) The reference compound Staurosporine was purchased from Sigma-Aldrich (Saint Louis, MI), and CellTiter-Glo® 2.0 Luminescent cell viability assay reagent (cat #G9243) was purchased from Promega (Madison, WI). AsPC-1 and SW480 cell lines were purchased from American Type Culture Collection (Manassas, VA). AsPC-1 cells were cultured with RPMI-1640 (ATCC, cat #30-2001) and SW480 cells were cultured with DMEM (ATCC cat #30-2002).
(§9) A medium supplemented with 10% FBS (Sigma-Aldrich, cat #F2442) and 100 µg/mL of penicillin-streptomycin (Sigma-Aldrich, cat #P4333) was used. Cells were cultured at 37 °C in a humidified atmosphere of 5% CO2 and 95% air.
(§10) • 1. The test compound and reference compound, Staurosporine were dissolved in DMSO solution to prepare 20 mM (test compound) and 10 mM (control compound, Staurosporine) in the Source Plate and diluted with DMSO to 3-fold and 10 doses. • 2. From the Source Plate, 10 volumes of 125 nL test compound or 25 nL reference compound were dispensed into wells of a 384-well culture plate (VWR, cat #82050-076) using Echo 655. • 3. 25 μL of culture medium including 2000 AsPC-1 or SW480 cells was dispensed into each 384-well cell culture plate. • 4. Cells were cultured with the compound for 72 hours at 37 °C and 5% CO2 conditions. • 5. 25 μL of CellTiter-Glo 2.0 reagent was added to each well of the plate. • 6. The contents were mixed for 2 minutes on an orbital shaker, and the luminescence signal was stabilized at room temperature for 15 minutes. • 7. Luminescence signals were measured with an Envision 2104 Multilabel Reader (PerkinElmer, Santa Clara, CA), and the number of surviving cells was determined through quantification of ATP present in each culture. • 8. IC50 values were calculated based on the Sigmoidal dose-response equation in the GraphPad Prism 4 program.

Assay [3] has as its target T2, KRAS G12V (Homo sapiens, UniProt P01116, G12V).
T2 construct: GST-tagged KRAS WT or mutant protein (amino acids 2-169)
Briefly: KRAS Nucleotide Exchange Assay (SOS1-mediated), G12V. Format: biochemical. The settings on record: HTRF, 20 nM KRAS, 50 nM SOS1, 60 minutes preincubation, 60 minutes reaction.
Text: as §1, §2, §3, §4, §5

In assay [4] the test system is SW480 cells. In words: Cell Proliferation Assay, SW480 (CellTiter-Glo 2.0 viability). Format: cell-based. To be noted: Homo sapiens; SW480 colon cancer (KRAS G12V mutation); 72 hours. As for the experimental part: as §6, §7, §8, §9, §10
On the technique in general: ATP-based viability assays read luminescence as a measure of living cells.

SMILES strings stand for the structures. Bounds are passed on as bounds.

One may read the IC50 as the concentration that gives 50% inhibition. A low value points to inhibition by little substance.

T1 sequence (P01116 2-169 isoform P01116-2 G12D): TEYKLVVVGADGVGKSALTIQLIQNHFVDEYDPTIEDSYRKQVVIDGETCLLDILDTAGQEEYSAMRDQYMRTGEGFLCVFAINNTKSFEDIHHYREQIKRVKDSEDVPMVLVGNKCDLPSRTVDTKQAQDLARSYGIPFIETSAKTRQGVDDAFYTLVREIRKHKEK
T2 sequence (P01116 2-169 isoform P01116-2 G12V): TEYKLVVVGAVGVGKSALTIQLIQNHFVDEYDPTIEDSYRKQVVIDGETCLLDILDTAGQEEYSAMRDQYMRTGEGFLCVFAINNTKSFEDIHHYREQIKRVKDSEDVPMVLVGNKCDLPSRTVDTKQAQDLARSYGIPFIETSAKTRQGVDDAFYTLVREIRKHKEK

For `C#Cc1c(F)ccc2cc(O)cc(-c3nc4c5c(nc(OC[C@@]67CCCN6C[C@H](F)C7)nc5c3F)N(CC3(N(C)C)CCC3)CCO4)c12` [Example 2, 4-(10-((1-(dimethylamino)cyclobutyl)methyl)-4-fluoro-2-(((2R,7aS)-2-fluorotetrahydro-1H-pyrrolizin-7a(5H)-yl)methoxy)-9,10-dihydro-8H-7-oxa-1,3,6,10-tetraazacyclohepta[de]naphthalen-5-yl)-5-ethynyl-6-fluoronaphthalen-2-ol], the IC50 in assay [1] was 0.00134 µM; in assay [2], 1 to 10 µM.
Consider `CCc1c(F)ccc2cc(O)cc(-c3nc4c5c(nc(OC[C@@]67CCCN6C[C@H](F)C7)nc5c3F)N(C(C)c3cccnc3N)C[C@H](C)O4)c12` (stereo partly drawn) [Example 3, 4-((8S)-10-(1-(2-aminopyridin-3-yl)ethyl)-4-fluoro-2-(((2R,7aS)-2-fluorotetrahydro-1H-pyrrolizin-7a(5H)-yl)methoxy)-8-methyl-9,10-dihydro-8H-7-oxa-1,3,6,10-tetraazacyclohepta[de]naphthalen-5-yl)-5-ethyl-6-fluoronaphthalen-2-ol], for which the IC50 in assay [1] was 0.00869 µM; in assay [2] it was more than 10 µM; in assay [3], 0.00325 µM.
The matching figures for `CCc1c(F)ccc2cc(O)cc(-c3nc4c5c(nc(OC[C@@]67CCCN6C[C@H](F)C7)nc5c3F)N([C@H](C)c3cccnc3N)C[C@H](C)O4)c12` [Example 3a, 4-((S)-10-((R)-1-(2-aminopyridin-3-yl)ethyl)-4-fluoro-2-(((2R,7aS)-2-fluorotetrahydro-1H-pyrrolizin-7a(5H)-yl)methoxy)-8-methyl-9,10-dihydro-8H-7-oxa-1,3,6,10-tetraazacyclohepta[de]naphthalen-5-yl)-5-ethyl-6-fluoronaphthalen-2-ol]: 0.00576 µM, more than 10 µM and 0.00219 µM.
On to `CCc1c(F)ccc2cc(O)cc(-c3nc4c5c(nc(OC[C@@]67CCCN6C[C@H](F)C7)nc5c3F)N([C@@H](C)c3cccnc3N)C[C@H](C)O4)c12` [Example 3b, 4-((S)-10-((S)-1-(2-aminopyridin-3-yl)ethyl)-4-fluoro-2-(((2R,7aS)-2-fluorotetrahydro-1H-pyrrolizin-7a(5H)-yl)methoxy)-8-methyl-9,10-dihydro-8H-7-oxa-1,3,6,10-tetraazacyclohepta[de]naphthalen-5-yl)-5-ethyl-6-fluoronaphthalen-2-ol], for which the IC50 was 0.176 µM in assay [1] and 0.0621 µM in assay [3].
Regarding `CCc1c(F)ccc2cc(O)cc(-c3nc4c5c(nc(OC[C@@]67CCCN6C[C@H](OC)C7)nc5c3F)N(C(C)c3cccnc3N)CCO4)c12` (stereo partly drawn) [Example 17, 4-(10-(1-(2-aminopyridin-3-yl)ethyl)-4-fluoro-2-(((2R,7aS)-2-methoxytetrahydro-1H-pyrrolizin-7a(5H)-yl)methoxy)-9,10-dihydro-8H-7-oxa-1,3,6,10-tetraazacyclohepta[de]naphthalen-5-yl)-5-ethyl-6-fluoronaphthalen-2-ol], the concentration for half-maximal inhibition (IC50) in assay [2] and in assay [4] was less than 1 µM each time.
Take `C#Cc1c(F)ccc2cc(O)cc(-c3nc4c5c(nc(OCC6C[C@@H](F)CN6C)nc5c3F)N(C(C)c3cccnc3N)CCO4)c12` (stereo partly drawn) [Example 18, 4-(10-(1-(2-aminopyridin-3-yl)ethyl)-4-fluoro-2-(((4R)-4-fluoro-1-methylpyrrolidin-2-yl)methoxy)-9,10-dihydro-8H-7-oxa-1,3,6,10-tetraazacyclohepta[de]naphthalen-5-yl)-5-ethynyl-6-fluoronaphthalen-2-ol]: the IC50 in assay [2] was 1 to 10 µM; in assay [4] it was less than 1 µM.
For `CCc1c(F)ccc2cc(O)cc(-c3nc4c5c(nc(OCC6C[C@@H](F)CN6C)nc5c3F)N(C(C)c3cccnc3N)CCO4)c12` (stereo partly drawn) [Example 22, 4-(10-(1-(2-aminopyridin-3-yl)ethyl)-4-fluoro-2-(((4R)-4-fluoro-1-methylpyrrolidin-2-yl)methoxy)-9,10-dihydro-8H-7-oxa-1,3,6,10-tetraazacyclohepta[de]naphthalen-5-yl)-5-ethyl-6-fluoronaphthalen-2-ol], the figures for the IC50 in assay [2] and in assay [4] were 1 to 10 µM and less than 1 µM, respectively.
The matching figures for `CCc1c(F)ccc2cc(O)cc(-c3nc4c5c(nc(OC[C@@]67CCCN6C[C@H](F)C7)nc5c3F)N(C(C)c3cc(C)cnc3N)CCO4)c12` (stereo partly drawn) [Example 23, 4-(10-(1-(2-amino-5-methylpyridin-3-yl)ethyl)-4-fluoro-2-(((2R,7aS)-2-fluorotetrahydro-1H-pyrrolizin-7a(5H)-yl)methoxy)-9,10-dihydro-8H-7-oxa-1,3,6,10-tetraazacyclohepta[de]naphthalen-5-yl)-5-ethyl-6-fluoronaphthalen-2-ol]: 1 to 10 µM and less than 1 µM.
The matching figures for `CCc1c(F)ccc2cc(O)cc(-c3nc4c5c(nc(OCC6(C#N)CCOCC6)nc5c3F)N(C(C)c3cccnc3N)CCO4)c12` (stereo not drawn) [Example 24, 4-(((10-(1-(2-aminopyridin-3-yl)ethyl)-5-(8-ethyl-7-fluoro-3-hydroxynaphthalen-1-yl)-4-fluoro-9,10-dihydro-8H-7-oxa-1,3,6,10-tetraazacyclohepta[de]naphthalen-2-yl)oxy)methyl)tetrahydro-2H-pyran-4-carbonitrile]: more than 10 µM and 1 to 10 µM.
The matching figures for `CCc1c(F)ccc2cc(O)cc(-c3nc4c5c(nc(OC[C@@H]6CC[C@H]7COCCN76)nc5c3F)N(C(C)c3cccnc3N)CCO4)c12` (stereo partly drawn) [Example 25, 4-(10-(1-(2-aminopyridin-3-yl)ethyl)-4-fluoro-2-(((6S,8aS)-hexahydro-1H-pyrrolo[2,1-c][1,4]oxazin-6-yl)methoxy)-9,10-dihydro-8H-7-oxa-1,3,6,10-tetraazacyclohepta[de]naphthalen-5-yl)-5-ethyl-6-fluoronaphthalen-2-ol]: 1 to 10 µM and less than 1 µM.
For `CC(c1cccnc1N)N1CCOc2c(Cl)c(-c3ccc(F)c4sc(N)c(C#N)c34)c(F)c3nc(OC[C@@]45CCCN4C[C@H](F)C5)nc1c23` (stereo partly drawn) [Example 29a, (4R)-2-amino-4-(4-(1-(2-aminopyridin-3-yl)ethyl)-8-chloro-10-fluoro-2-(((2R,7aS)-2-fluorotetrahydro-1H-pyrrolizin-7a(5H)-yl)methoxy)-5,6-dihydro-4H-[1,4]oxazepino[5,6,7-de]quinazolin-9-yl)-7-fluorobenzo[b]thiophene-3-carbonitrile], the half-maximal inhibitory concentration (IC50) in assay [2] and in assay [4] was less than 1 µM each time.

Source of the values: patent US20260374781A1, “NOVEL TRIHETEROCYCLIC COMPOUNDS” (IDENCE CO., LTD., priority 2022, published 2026).
